Measurements from article PMC9682871 (Antiviral Research, 2022).

Assays:
MERS-CoV [1] = format: cell-based
SARS-CoV = format: cell-based
HCoV-229E = format: cell-based
SARS-CoV-2 [2] = format: cell-based
A549 cells [3] = format: cell-based; conditions: 10 μM, 12 h
A549 cells [4] = format: cell-based; conditions: 10 μM, 12 h; remark: listed apart in the source
SARS-CoV-2 [5] = conditions: hamster, in vivo
[6] = system: pseudovirus presenting the spike of MERS-CoV; test: organism not typed; format: cell-based
HCoV-OC43 = format: cell-based
MERS-CoV [7] = format: cell-based; remark: listed apart in the source

| SMILES | inhibition by time of addition (MERS-CoV [1]) | cytotoxic effects in the pseudovirus assay (Huh-7 cells) | potency against SARS-CoV (SARS-CoV) | efficacy against HCoV-229E (HCoV-229E) | inhibition of SARS-CoV-2 infection by viral RNA (SARS-CoV-2 [2]) | CH25H gene expression (A549 cells [3]) | SQLE expression (A549 cells [3]) | total cellular cholesterol (A549 cells [4]) | activity level or survival rate (SARS-CoV-2 [5]) | EC50 ([6]; Huh-7, read-out: Pseudovirus (EC50, μM)) [µM] | efficacy against HCoV-OC43 (HCoV-OC43) | MERS-CoV infection assay, immunofluorescence (MERS-CoV [7]) | pseudovirus infection / luciferase signal [6] |
| --- | --- | --- | --- | --- | --- | --- | --- | --- | --- | --- | --- | --- | --- |
| O=C(c1ccc(OCCN2CCCCC2)cc1)c1c(-c2ccc(O)cc2)sc2cc(O)ccc12 [raloxifene] | more potent when added at the earlier stages | no significant cytotoxic effects | strong potency | effective | strong potency | do not show alteration | significantly enhanced | marginal elevation | no significant changes | 0.2 | effective |  |  |
| Cc1cccc(C)c1OCC(=O)N[C@@H](Cc1ccccc1)[C@@H](O)C[C@H](Cc1ccccc1)NC(=O)[C@H](C(C)C)N1CCCNC1=O [lopinavir] | showed efficacy when added at a relatively later stage of infection |  |  |  |  |  |  |  |  |  |  | quenched in a concentration-dependent manner |  |
| CCCCc1oc2ccccc2c1C(=O)c1cc(I)c(OCCN(CC)CC)c(I)c1 [amiodarone] | strongly inhibited the viral infection when added at an early time point |  | strong potency | showed efficacy |  |  |  |  |  |  | showed efficacy |  | outstanding antiviral activity |
| CCN(CC)CCCC(C)Nc1ccnc2cc(Cl)ccc12 (centres unmarked) [chloroquine] | stage-selective activity |  |  |  |  |  |  |  |  |  |  | quenched in a concentration-dependent manner |  |
